In the supplement of paper PMC4862054:

How the values were obtained:
Test in all cases: normalised response (% of control), CellTiter-Glo; higher = more viable cells (100 = DMSO, 0 = benzethonium chloride kill control)
Settings in all cases: incubation time: 72 h
MDA-MB-436 = test system: MDA-MB-436
In short: (§1)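 Breast cancer cell lines, seeded at 20 µl suspension per well, were incubated for 72 h in 384-well plates containing compound at 5 concentrations. These concentrations rose in 10-fold steps over a 10,000-fold range set for each compound. CellTox Green fluorescence (485/520 nm) was read, then CellTiter-Glo luminescence after 10 min at room temperature, and each plate was normalised to 0.1 % DMSO (100) and a positive kill control (0). Values are normalised signals, each at one concentration.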

HCC1143 = test system: HCC1143
In short: as §1

BT-549 = test system: BT-549
In short: as §1

MDA-MB-453 = test system: MDA-MB-453
In short: as §1

CAL-148 = test system: CAL-148
In short: as §1

DU-4475 = test system: DU-4475
In short: as §1

MDA-MB-231 = test system: MDA-MB-231
In short: as §1

SK-BR-3 = test system: SK-BR-3
In short: as §1

BT-474 = test system: BT-474
In short: as §1

MCF-10A = test system: MCF-10A
In short: as §1

MDA-MB-468 = test system: MDA-MB-468
In short: as §1

HDQ-P1 = test system: HDQ-P1
In short: as §1

Hs578T = test system: Hs578T
In short: as §1

CAL-120 = test system: CAL-120
In short: as §1

CAL-85-1 = test system: CAL-85-1
In short: as §1

MFM-223 = test system: MFM-223
In short: as §1

HCC1937 = test system: HCC1937
In short: as §1

CAL-51 = test system: CAL-51
In short: as §1

HCC1599 = test system: HCC1599
In short: as §1

Nc1nc2[nH]cc(CCc3ccc(C(=O)N[C@@H](CCC(=O)O)C(=O)O)cc3)c2c(=O)[nH]1 [Pemetrexed] (1 nM)
normalised response (MDA-MB-436): 98.7% | normalised response (HCC1143): 91.6% | normalised response (BT-549): 105% | normalised response (MDA-MB-453): 101% | normalised response (CAL-148): 98.9% | normalised response (DU-4475): 95.1% | normalised response (MDA-MB-231): 97.4% | normalised response (SK-BR-3): 101% | normalised response (BT-474): 97.8% | normalised response (MCF-10A): 95.7% | normalised response (MDA-MB-468): 99% | normalised response (HDQ-P1): 105% | normalised response (Hs578T): 101% | normalised response (CAL-120): 106% | normalised response (CAL-85-1): 94.2% | normalised response (MFM-223): 92.6% | normalised response (HCC1937): 96.8% | normalised response (CAL-51): 90% | normalised response (HCC1599): 85.1%

O=C(/C=C/c1cccnc1)NCCCCC1CCN(C(=O)c2ccccc2)CC1 [Daporinad] (0.1 nM)
normalised response (MDA-MB-436): 101% | normalised response (HCC1143): 94% | normalised response (BT-549): 98.4% | normalised response (MDA-MB-453): 102% | normalised response (CAL-148): 101% | normalised response (DU-4475): 103% | normalised response (MDA-MB-231): 101% | normalised response (SK-BR-3): 108% | normalised response (BT-474): 106% | normalised response (MCF-10A): 102% | normalised response (MDA-MB-468): 96.9% | normalised response (HDQ-P1): 98.4% | normalised response (Hs578T): 96.3% | normalised response (CAL-120): 101% | normalised response (CAL-85-1): 101% | normalised response (MFM-223): 109% | normalised response (HCC1937): 101% | normalised response (CAL-51): 112% | normalised response (HCC1599): 108%

CCCS(=O)(=O)Nc1ccc(F)c(C(=O)c2c[nH]c3ncc(-c4ccc(Cl)cc4)cc23)c1F [Vemurafenib] (1 nM)
normalised response (MDA-MB-436): 88% | normalised response (HCC1143): 85.1% | normalised response (BT-549): 95% | normalised response (MDA-MB-453): 83.4% | normalised response (CAL-148): 84.2% | normalised response (DU-4475): 96.7% | normalised response (MDA-MB-231): 95.9% | normalised response (SK-BR-3): 86.9% | normalised response (BT-474): 97.2% | normalised response (MCF-10A): 82.1% | normalised response (MDA-MB-468): 95% | normalised response (HDQ-P1): 89.6% | normalised response (Hs578T): 95.3% | normalised response (CAL-120): 92.4% | normalised response (CAL-85-1): 98% | normalised response (MFM-223): 88% | normalised response (HCC1937): 91.5% | normalised response (CAL-51): 92.5% | normalised response (HCC1599): 95.6%

COc1cc([C@@H]2c3cc4c(cc3[C@@H](O[C@@H]3O[C@@H]5CO[C@@H](c6cccs6)O[C@H]5[C@H](O)[C@H]3O)[C@H]3COC(=O)[C@H]23)OCO4)cc(OC)c1O [Teniposide] (1 nM)
normalised response (MDA-MB-436): 96.9% | normalised response (HCC1143): 100% | normalised response (BT-549): 103% | normalised response (MDA-MB-453): 91.8% | normalised response (CAL-148): 102% | normalised response (DU-4475): 99% | normalised response (MDA-MB-231): 94.1% | normalised response (SK-BR-3): 101% | normalised response (BT-474): 99.3% | normalised response (MCF-10A): 106% | normalised response (MDA-MB-468): 95.9% | normalised response (HDQ-P1): 96.4% | normalised response (Hs578T): 106% | normalised response (CAL-120): 95.8% | normalised response (CAL-85-1): 99% | normalised response (MFM-223): 96% | normalised response (HCC1937): 106% | normalised response (CAL-51): 125% | normalised response (HCC1599): 107%

C=CC(=O)N1CCC[C@@H](n2nc(-c3ccc(Oc4ccccc4)cc3)c3c(N)ncnc32)C1 [Ibrutinib] (0.1 nM)
normalised response (MDA-MB-436): 96.8% | normalised response (HCC1143): 96.3% | normalised response (BT-549): 102% | normalised response (MDA-MB-453): 110% | normalised response (CAL-148): 101% | normalised response (DU-4475): 102% | normalised response (MDA-MB-231): 102% | normalised response (SK-BR-3): 109% | normalised response (BT-474): 101% | normalised response (MCF-10A): 109% | normalised response (MDA-MB-468): 103% | normalised response (HDQ-P1): 93.6% | normalised response (Hs578T): 104% | normalised response (CAL-120): 97.1% | normalised response (CAL-85-1): 100% | normalised response (MFM-223): 106% | normalised response (HCC1937): 97.3% | normalised response (CAL-51): 99.3% | normalised response (HCC1599): 104%

C=CC(=O)Nc1cc2c(Nc3ccc(F)c(Cl)c3)ncnc2cc1OCCCN1CCOCC1 [Canertinib] (10 nM)
normalised response (MDA-MB-436): 99.2% | normalised response (HCC1143): 99.8% | normalised response (BT-549): 95.6% | normalised response (MDA-MB-453): 99.1% | normalised response (CAL-148): 102% | normalised response (DU-4475): 107% | normalised response (MDA-MB-231): 106% | normalised response (SK-BR-3): 91% | normalised response (BT-474): 106% | normalised response (MCF-10A): 76.6% | normalised response (MDA-MB-468): 96.3% | normalised response (HDQ-P1): 82.4% | normalised response (Hs578T): 103% | normalised response (CAL-120): 91.7% | normalised response (CAL-85-1): 99.6% | normalised response (MFM-223): 103% | normalised response (HCC1937): 89.5% | normalised response (CAL-51): 84.3% | normalised response (HCC1599): 93.8%

CCCS(=O)(=O)Nc1ccc(F)c(C(=O)c2c[nH]c3ncc(-c4ccc(Cl)cc4)cc23)c1F [Vemurafenib] (10 nM)
normalised response (MDA-MB-436): 88.7% | normalised response (HCC1143): 97.6% | normalised response (BT-549): 91.2% | normalised response (MDA-MB-453): 87.6% | normalised response (CAL-148): 87.8% | normalised response (DU-4475): 93.2% | normalised response (MDA-MB-231): 91.3% | normalised response (SK-BR-3): 71.8% | normalised response (BT-474): 95.5% | normalised response (MCF-10A): 89.2% | normalised response (MDA-MB-468): 88.2% | normalised response (HDQ-P1): 94.9% | normalised response (Hs578T): 95.8% | normalised response (CAL-120): 95.2% | normalised response (CAL-85-1): 90.9% | normalised response (MFM-223): 89.8% | normalised response (HCC1937): 98.8% | normalised response (CAL-51): 109% | normalised response (HCC1599): 99.6%

CC[C@H](Nc1ncnc2[nH]cnc12)c1nc2cccc(F)c2c(=O)n1-c1ccccc1 [GS-1101] (1 nM)
normalised response (MDA-MB-436): 92.5% | normalised response (HCC1143): 89.9% | normalised response (BT-549): 102% | normalised response (MDA-MB-453): 88.3% | normalised response (CAL-148): 84.8% | normalised response (DU-4475): 100% | normalised response (MDA-MB-231): 98.5% | normalised response (SK-BR-3): 88% | normalised response (BT-474): 92% | normalised response (MCF-10A): 79.2% | normalised response (MDA-MB-468): 93.4% | normalised response (HDQ-P1): 88.3% | normalised response (Hs578T): 96.8% | normalised response (CAL-120): 90.1% | normalised response (CAL-85-1): 95.1% | normalised response (MFM-223): 85.4% | normalised response (HCC1937): 91.6% | normalised response (CAL-51): 101% | normalised response (HCC1599): 96.3%

COc1cc2nccc(Oc3ccc(NC(=O)Nc4cc(C)on4)c(Cl)c3)c2cc1OC [Tivozanib] (1 nM)
normalised response (MDA-MB-436): 83.2% | normalised response (HCC1143): 94.2% | normalised response (BT-549): 102% | normalised response (MDA-MB-453): 94.7% | normalised response (CAL-148): 94.3% | normalised response (DU-4475): 97.5% | normalised response (MDA-MB-231): 98.9% | normalised response (SK-BR-3): 91.2% | normalised response (BT-474): 91.4% | normalised response (MCF-10A): 79% | normalised response (MDA-MB-468): 97.3% | normalised response (HDQ-P1): 93.5% | normalised response (Hs578T): 91% | normalised response (CAL-120): 95.7% | normalised response (CAL-85-1): 93% | normalised response (MFM-223): 88.6% | normalised response (HCC1937): 92.7% | normalised response (CAL-51): 108% | normalised response (HCC1599): 88.6%

O=C(O)CCCCC(CCSCc1ccccc1)SCc1ccccc1 (centres undefined) [CPI-613] (1 nM)
normalised response (MDA-MB-436): 96.5% | normalised response (HCC1143): 105% | normalised response (BT-549): 102% | normalised response (MDA-MB-453): 107% | normalised response (CAL-148): 107% | normalised response (DU-4475): 101% | normalised response (MDA-MB-231): 100% | normalised response (SK-BR-3): 114% | normalised response (BT-474): 101% | normalised response (MCF-10A): 106% | normalised response (MDA-MB-468): 103% | normalised response (HDQ-P1): 100% | normalised response (Hs578T): 102% | normalised response (CAL-120): 96.3% | normalised response (CAL-85-1): 99.2% | normalised response (MFM-223): 99.1% | normalised response (HCC1937): 104% | normalised response (CAL-51): 78.6% | normalised response (HCC1599): 97.6%

O=C(Cc1ccc(-c2ccc(OCCN3CCOCC3)cc2)cn1)NCc1ccccc1 [KX2-391] (10 nM)
normalised response (MDA-MB-436): 98% | normalised response (HCC1143): 104% | normalised response (BT-549): 102% | normalised response (MDA-MB-453): 101% | normalised response (CAL-148): 112% | normalised response (DU-4475): 104% | normalised response (MDA-MB-231): 100% | normalised response (SK-BR-3): 87.6% | normalised response (BT-474): 103% | normalised response (MCF-10A): 107% | normalised response (MDA-MB-468): 94.6% | normalised response (HDQ-P1): 98% | normalised response (Hs578T): 103% | normalised response (CAL-120): 101% | normalised response (CAL-85-1): 97.3% | normalised response (MFM-223): 106% | normalised response (HCC1937): 98.4% | normalised response (CAL-51): 73.2% | normalised response (HCC1599): 100%
